{"source": "paper PMC12658903", "about": "(RSC Medicinal Chemistry, 2025)", "tested_on": "SARS-CoV-2 (D614G)", "assay_type": "cell-based", "details": "10 µM", "data": [{"smiles": "CN(C)C(=O)COC(=O)Cc1ccc(OC(=O)c2ccc(NC(=N)N)cc2)cc1", "note": "[Camostat, camostat]", "values": [{"measurement": "Percentage of infection inhibition", "value": 85, "unit": "%"}]}]}
